Experimental data published in PubChem BioAssay AID1625 (Sanford-Burnham Center for Chemical Genomics, 2009).
pEC50: −log10 of the molar value. Calls of active or inactive are those of the source.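 The calls were made as follows: active = z-score above 3 at 5 µM with at least 500 cells counted in the well; inconclusive = wells under 500 cells, flagged as cytotoxic or low count; inactive = the rest.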

Test system: MIN6 insulin promoter-GFP reporter, high-content imaging
Experiment: insulin promoter activators in MIN6 cells, imaging, high-content screening, mouse beta cells (AID 1625)

Row | Structure (SMILES) | EC50 | pEC50
1 | CCN(CC)c1ccc2cc(/C(N)=N/NC(=O)c3cccs3)c(=O)oc2c1 | 13.8 µM (inactive) | 
2 | O=C1S/C(=C\c2ccc(N3CCOCC3)o2)C(=O)N1Cc1c(F)cccc1Cl |  | 6.01
3 | CN(C)c1ccc(/C=C2\SC(=O)N(CC(O)Cn3c4ccccc4c4ccccc43)C2=O)cc1 (stereo not drawn) | > 16 µM (inactive) | 
4 | COC(=O)c1cc2c(-c3ccccc3)cc3ccccn3c-2c1C(=O)OC | > 16 µM (inactive) | 
5 | COc1ccccc1N/C=C/c1onc(C)c1[N+](=O)[O-] |  | 5.65
6 | N#C/C(=C/c1ccc(N2CCOCC2)o1)c1ccc(Br)cc1 | 12.8 µM (inactive) | 
7 | COc1cc(OC)c(OC)cc1/C=C1\Oc2cc(OS(C)(=O)=O)ccc2C1=O | > 16 µM (inactive) | 
8 | COc1cc2nc(/C=C/c3ccc(N(C)C)cc3)sc2cc1SC |  | 5.13
9 | CCCNC(=O)Cn1c(=O)/c(=C\c2ccc(-c3ccc([N+](=O)[O-])cc3)o2)s/c1=C\C(=O)C(C)(C)C |  | 6.44
10 | Cn1cc(/C=C2\SC(=S)N(NC(=O)c3ccccc3)C2=O)c2ccccc21 | > 16 µM (inactive) | 
11 | CC(=O)Cc1cc(O)c2ccccc2c1OC(=O)c1ccc(Br)cc1 | > 16 µM (inactive) | 
12 | COc1cc(N2CCCC2)c(OC)cc1/C=C(/C#N)c1cccc(Br)c1 |  | 5.32
13 | CCCSc1nc2sc3c(c2c(=O)[nH]1)CCN(Cc1ccccc1)C3 | > 16 µM (inactive) | 
14 | Cc1cccn2c(=O)c(/C=C3\SC(=S)N(CC(C)C)C3=O)c(NCCCOC(C)C)nc12 | > 16 µM (inactive) | 
15 | CN1CC=C2C(C#N)=C(N)C(C#N)(C#N)[C@H](c3ccoc3)[C@H]2C1 | 11.2 µM (inactive) | 
16 | Cc1ccc(N2C(=O)c3cccc4c(N5CCN(C)CC5)ccc(c34)C2=O)c2cccnc12 | 10.3 µM (inactive) | 
17 | CCOc1cc([N+](=O)[O-])cc2c1C(=O)Nc1ccccc1O2 | > 16 µM (inactive) | 
18 | N#C/C(=C\N1CCN(Cc2ccc3c(c2)OCO3)CC1)c1nc2ccccc2s1 | > 16 µM (inactive) | 
19 | N#C/C(=C/c1ccc(N2CCOCC2)o1)c1nc2ccccc2[nH]1 |  | 5.11
20 | N#C/C(=C/c1ccc(-c2ccc(S(N)(=O)=O)cc2)o1)c1nc2ccccc2s1 | 10 µM (inactive) | 
21 | Nc1c(C(=O)C2CC2)sc2nc(-c3ccccc3)cc(C(F)(F)F)c12 |  | 5.06
22 | CCCN(CCC)c1ccc(/C=C/c2ccc3cc(OCC)ccc3n2)cc1 | > 16 µM (inactive) | 
23 | CCOC(=O)/C(C#N)=C/C=C1\C=Cc2ccccc2N1CC | > 16 µM (inactive) | 
24 | Nc1c(C(=O)c2ccc(Cl)cc2)sc2nsc(SCCN3CCOCC3)c12 |  | 5.23
25 | COc1cc2c(cc1OC)C1=CC(=O)C(=O)N1C(C)(C)C2 | 11.5 µM (inactive) | 

Row | Structure (SMILES) | EC50 | pEC50
26 | Cc1ccc(-c2cn3nc(-c4ccccc4)c(-c4ccccc4)nc3n2)cc1 | 12.4 µM (inactive) | 
27 | CCN(CC)c1ccc2cc(C(N)=O)/c(=N\NC(=O)c3ccncc3)oc2c1 |  | 5.01
28 | Nc1c(C(=O)N/N=C/c2cccnc2)oc2nc(-c3ccccc3)cc(-c3ccco3)c12 | > 16 µM (inactive) | 
29 | CCCC1C2CN(C(C)C)CC=C2C(C#N)=C(N)C1(C#N)C#N (stereo not drawn) |  | 5.26
30 | O=C(N=C1SCC(=O)N1c1ccccc1Cl)c1ccccc1 | > 16 µM (inactive) | 
31 | CCCN1C(=O)S/C(=C\c2ccc(N3CCOCC3)o2)C1=O | 13.9 µM (inactive) | 
32 | CC1CCCCC1NC(=O)COC(=O)c1c2c(nc3ccccc13)/C(=C/c1ccco1)CC2 (stereo not drawn) | > 16 µM (inactive) | 
33 | N#C/C(=C\c1ccc(N2CCCCC2)o1)C(=O)Nc1cccc(Br)c1 |  | 6.22
34 | Cc1ccc(-c2ccc(/C=C(\C#N)C(=O)Nc3cc(C)nn3-c3ccccc3)o2)cc1 | > 16 µM (inactive) | 
35 | COc1ccc(CN2C(=O)/C(=C/c3ccc(-c4ccc(Cl)c(C(=O)O)c4)o3)SC2=S)cc1 | 15.4 µM (inactive) | 
36 | C/C(=N\Nc1ccc([N+](=O)[O-])cc1)c1cc2ccccc2o1 | > 16 µM (inactive) | 
37 | CCOC(=O)C1=C(C)NC(=O)NC1c1ccc(N2CCC(c3ccccc3)=N2)cc1 (stereo not drawn) | > 16 µM (inactive) | 
38 | CSc1c(C#N)c(N)nc2sc(C(=O)c3ccc(Cl)c(Cl)c3)c(N)c12 | > 16 µM (inactive) | 
39 | CC(=O)Nc1sc(/C(C#N)=C\c2cccc(Cl)c2)nc1-c1ccc(C)cc1 |  | 5.05
40 | CCN1/C(=C/c2ccc3cc(C)ccc3[n+]2CC)Sc2ccccc21 |  | 5.96
41 | CCOC(=O)Cc1csc(NC(=O)c2sc3nc4c(C)cc(C)cc4cc3c2N)n1 | > 16 µM (inactive) | 
42 | COc1cc2c3nnc(-c4ccc(F)cc4)c-3cn(Cc3ccccc3)c2cc1OC |  | 5.54
43 | N#C/C(=C\c1ccc(N2CCOCC2)o1)c1ccccc1 | > 16 µM (inactive) | 
44 | CN(C)c1ccc(/C=C/C(O)=C2/C(=O)N(C)C3(C)CC2c2ccccc2O3)cc1 (stereo not drawn) | > 16 µM (inactive) | 
45 | COc1cc(N2CCCC2)c(OC)cc1/C=C1/NC(=S)NC1=O |  | 5.33
46 | CCCCN1C(=O)/C(=C/C=C2\N(C)c3ccccc3C2(C)C)SC1=S |  | 5.25
47 | CCC(C)N1C(=O)/C(=C/c2c(NCCCOC(C)C)nc3c(C)cccn3c2=O)SC1=S (stereo not drawn) |  | 5.55
48 | Nc1c(C(=O)c2ccccc2)sc2nsc(SCCN3CCCC3)c12 |  | 5.08
49 | CN1/C(=C\C=C(/C#N)C(=O)Nc2ccccc2F)C(C)(C)c2ccccc21 | > 16 µM (inactive) | 
50 | COc1cccc2sc(NNC(=O)C3=COCCO3)nc12 | > 16 µM (inactive) | 

Row | Structure (SMILES) | EC50 | pEC50
51 | Cc1ccc(C(=O)NN2C(=O)/C(=C/c3cn(C)c4ccccc34)SC2=S)cc1 | > 16 µM (inactive) | 
52 | COc1ccc2nc(SCC(C)=O)c(C#N)cc2c1 |  | 5.09
53 | O=[N+]([O-])c1ccc(/C=C/C2=NN(c3ccccc3)C(c3ccco3)C2)o1 (stereo not drawn) | > 16 µM (inactive) | 
54 | N#C/C(=C/c1ccc(N2CCCCC2)o1)C(=O)Nc1ccc(Cl)cc1 |  | 6.32
55 | CN(C)c1ccc(/C=C2\CCC/C(=C\c3ccccc3)C2=O)cc1 | > 16 µM (inactive) | 
56 | Cc1c(N=C2N=C(NC(=O)c3cccs3)c3ccccc32)c(=O)n(-c2ccccc2)n1C | 13.9 µM (inactive) | 
57 | CCCOc1cc(N(CC)CC)ccc1/C=C(/C#N)c1nc2ccc(C)cc2[nH]1 |  | 5.00
58 | CC(C)N1CCc2c(sc(NC(=O)c3ccc(S(=O)(=O)N4CCc5ccccc54)cc3)c2C(N)=O)C1 | > 16 µM (inactive) | 
59 | Cc1cccn2c(=O)c(/C=C3\SC(=S)NC3=O)c(NCCCN3CCOCC3)nc12 | 12.2 µM (inactive) | 
60 | Nc1ccc2c(c1)Cc1cc([N+](=O)[O-])ccc1-2 |  | 5.02
61 | Cc1[nH]c2ccccc2c1/C=N/Nc1ccc([N+](=O)[O-])cc1 |  | 5.03
62 | Cc1cc(/C=C2/C(=O)N(C)C(=S)N2C)ccc1N1CCCC1 |  | 5.79
63 | COc1ccc(/C=C2\CC/C(=C\c3ccc(OC)cc3OC)C2=O)c(OC)c1 | > 16 µM (inactive) | 
64 | Cc1cc(N2CCCC2)ccc1/C=C1\NC(=S)N(C)C1=O |  | 5.01
65 | O=C1S/C(=C/c2ccc(N3CCOCC3)o2)C(=O)N1Cc1c(F)cccc1Cl |  | 5.75
66 | CC(=O)Oc1ccc2c(c1)Oc1cc(OC(C)=O)ccc1C21OC(=O)c2ccccc21 |  | 6.36
67 | Cc1ccc(CNc2ccc3c(c2)OCO3)c(C)c1 | > 16 µM (inactive) | 
68 | COc1cc2c3nnc(-c4ccccc4)c-3cn(Cc3ccccc3F)c2cc1OC |  | 5.51
69 | O=C1c2cccc3c(O)ccc(c23)C(=O)N1Cc1ccccc1 |  | 5.25
70 | O=C1S/C(=C\c2ccc(N3CCOCC3)o2)C(=O)N1c1ccccc1 | 12.5 µM (inactive) | 
71 | Cc1ccc(NS(=O)(=O)c2cc([N+](=O)[O-])ccc2N/N=C/c2sc(N3CCOCC3)nc2-c2ccccc2)c(C)c1 | > 16 µM (inactive) | 
72 | CC(=O)c1c(C)[nH]c(-c2ccccc2)nc1=S |  | 5.04
73 | Cc1ccc(/C(C#N)=C\c2ccc(N3CCOCC3)o2)cc1 | > 16 µM (inactive) | 
74 | CN1C(=O)C(=Cc2ccc(N3CCCCC3)o2)C(=O)N(C)C1=S | > 16 µM (inactive) | 
75 | COc1ccc(/C(O)=C/c2nc3ccc(C(=O)NCCc4cccc(C)c4)cc3[nH]c2=O)cc1OC | > 16 µM (inactive) | 

Row | Structure (SMILES) | EC50 | pEC50
76 | Cc1ccc(Nc2nc(Cl)c(C=O)s2)cc1Cl | > 16 µM (inactive) | 
77 | Nc1c(C(=O)Nc2nccs2)sc2nc(-c3cccs3)cc(C(F)(F)F)c12 |  | 5.23
78 | CCCN1CCc2c(sc(NC(=S)NC(=O)c3ccccc3)c2C#N)C1 |  | 5.10
79 | CCCCN1C(=O)C2(NNc3ccccc3O2)c2ccccc21 (stereo not drawn) | > 16 µM (inactive) | 
80 | CCCN1CC=C2C(C#N)=C(N)C(C#N)(C#N)C(c3cccc(OC)c3OC)C2C1 (stereo not drawn) |  | 5.13
81 | CCCCn1nc(-c2ccccc2)c2nc3ccccc3nc21 | > 16 µM (inactive) | 
82 | CCCN1C(=O)/C(=C/c2c(NCCCOC(C)C)nc3c(C)cccn3c2=O)SC1=S | > 16 µM (inactive) | 
83 | CCOC(=O)CC1C(=O)NCCN1c1nc2c(C)cccn2c(=O)c1/C=C1\SC(=S)N(C(C)CC)C1=O (stereo not drawn) |  | 5.14
84 | CCCCCCN1C=CC(=C/C=C(\C#N)C(=O)OCC)C=C1 | 11 µM (inactive) | 
85 | CCOC(=O)c1nn(-c2ccc(Cl)cc2Cl)c(=N)c(C#N)c1C |  | 5.14
86 | COc1ccccc1NS(=O)(=O)c1cc([N+](=O)[O-])ccc1N/N=C/c1sc(N2CCOCC2)nc1-c1ccccc1 |  | 5.74
87 | COc1ccc(N=C2NC(=O)S/C2=C\c2ccc(N(C)C)cc2)cc1 | > 16 µM (inactive) | 
88 | O=C1c2cccc3c(O)ccc(c23)C(=O)N1Cc1ccco1 | 13.7 µM (inactive) | 
89 | O=C(O)c1cc(-c2ccc(/C=C3/SC(=S)N(Cc4ccccc4)C3=O)o2)ccc1Cl | 10.5 µM (inactive) | 
90 | O=C1S/C(=C/c2ccc(N3CCOCC3)o2)C(=O)N1Cc1ccc(F)cc1 | > 16 µM (inactive) | 
91 | COc1cc(OC)c(-c2c3cc(O)c(=O)cc-3oc3cc(O)c(O)cc23)cc1OC |  | 5.07
92 | CC(C)N1CC=C2C(C#N)=C(N)C(C#N)(C#N)[C@H](c3ccoc3)[C@H]2C1 |  | 5.07
93 | Cc1cccc(NC(=O)/C=C/c2ccc([N+](=O)[O-])s2)c1 | > 16 µM (inactive) | 
94 | N#C/C(=C/c1ccc(N2CCCCC2)o1)C(=O)Nc1ccc2ccccc2c1 |  | 6.25
95 | CN(C)c1ccc(/C=C2\SC(=S)N(Nc3ncc(C(F)(F)F)cc3Cl)C2=O)cc1 |  | 5.59
96 | CCN(CC)c1ccc2cc(-c3nc(-c4ccc(OC)cc4)cs3)c(=O)oc2c1 |  | > 6.60
97 | Cc1ccc(/C=[N+](\[O-])c2ccc(N(C)C)cc2)c2nsnc12 | > 16 µM (inactive) | 
98 | O=C(/C=C/c1c[nH]c2ccccc12)c1c(O)n(CCc2ccccc2)c(=O)[nH]c1=O | > 16 µM (inactive) | 
